# Experimental data from patent publication US10493061B2, “Compositions and methods comprising 2-(acylamino)imidazoles” (priority 2014, dated 2019).
# Values joined by “and” are separate entries in the source; they are usually repeats but may differ in a detail not shown here. Equal values may be shown once. Read-outs that look alike come from different tables or passages of the source.
# Tests used:
# [1] = system: Candida albicans; experiment: MIC determination in 96-well plates; assay type: cell-based, Candida albicans (ATCC 90028); settings: read-out: MIC100
# [2] = system: A. baumanii; experiment: MIC determination in 96-well plates; assay type: cell-based, Acinetobacter baumannii (ATCC 19606); settings: Acinetobacter baumannii; read-out: MIC100
# [3] = system: CEM-TART cells; experiment: Cytotoxicity in CEM-TART cells; assay type: cell-based
# [4] = ITC binding of naamidine A to ZnCl2; settings: ITC with significant amounts of MeOH; reasonable approximation
# Description: While this is believed to be a reasonable approximation of this binding, these ITC experiments were convoluted by solubility issues of the different species, requiring significant amounts of MeOH which can affect the accuracy of ITC experiments. Fisicaro et al. Thermochim. Acta 2014, 586 (0), 40-44. With a Zn^2+ binding affinity in the high nanomolar range, NA's phenotypic activity is likely a result of both kinase modulation and zinc binding.
# [5] = in vivo, mouse models (Ireland et al.); cited from earlier work
# [6] = system: Mycobacterium tuberculosis; experiment: microbe, parasite or virus in culture; settings: read-out: IC50 (anti-proliferative activity)
# Procedure: (§1) Library screening and MIC determination for the compounds were performed in 96-well plates as described previously in Koch et al. Planta Med 2009; 75(12): 1326-1330. Different media were used for respective test organisms. […] Mycobacterium tuberculosis H37Ra (ATCC 25177) was grown in 7H9 medium with ADC supplement (Remel, Lenexa, Kans.). Final well volume was 200 μL. […] The remaining wells received 1 μL of test compound in DMSO, in triplicates for MIC determination. Incubation was overnight at 37° C. for other organisms except for M. tuberculosis which was incubated for 5 days. B. subtilis and M. tuberculosis received 11 μL of sterile 5 mg/mL 3-(4,5-dimethylthiazol-2-yl)-2,5-diphenyltetrazolium bromide (MTT) in PBS on day 1 or 4, respectively. Formazan precipitate was dissolved with 50 μL solubilization reagent (50% DMF, 5% SDS, 45% water). Plates were evaluated on a Muliskan FC plate reader (Fisher Scientific, Waltham, Mass.).
# [7] = Zn^2+ binding, (ZNA)2Zn dimer formation (MeOH precipitation, X-ray, NMR)
# Description: The structure of the solid product was confirmed by X-ray crystallography (FIG. 14B). […] HCl in D2O protonates the ligand off the metal center, as evidenced by the disappearance of the diastereotopic benzyllic AB quartet in the dimer and its appearance as a singlet in the monomer. […] Of the analogues evaluated, those with more electron-donating groups at C5 or on the N^2-carbonyl seem to improve activity.
# [8] = system: MCF-7s; experiment: Cell viability of MCF-7 cells treated with ZNA and ZNA analogues; assay type: cell-based, human; settings: ZNA analogues and metabolite; assay not further specified
# Description: Of the analogues evaluated, those with more electron-donating groups at C5 or on the N^2-carbonyl seem to improve activity.
# [9] = in vivo; set-up: species or system Sprague-Dawley rats; settings: female, Sprague-Dawley, rat
# Procedure: ZNA has promising pkpd parameters. An initial pharmacokinetic (PK) analysis on ZNA was performed at 1 mg/kg IV, 5 mg/kg PO. ZNA was dosed to female Sprague-Dawley rats at either 1 mg/kg intravenously or at 5 mg/kg orally. Plasma was collected with K2EDTA and stored at −80° C. until analysis. Quantification of ZNA was performed by protein precipitation followed by ultra-high performance liquid chromatography (UHPLC) interfaced to an electrospray ionization quadrapole time-of-flight mass spectrometer (ESI-QTOF). Plasma concentrations were determined from a calibration curve using […]. The values determined were fit with Phoenix WinNonlin and pharmacokinetic values reported.
# The plasma concentrations for ZNA were very low, and most samples fell below the lower limit of quantification for the assay (10.0 ng/mL). This limited the data available for fitting in WinNonlin. To increase the amount of data for fitting, values from below the curve were extrapolated to approximately 40% of the LLOQ and were used for PK fitting. The percent of the area extrapolated in the PO PK animals ranged from 34-70% which was considered quite high. […] The oral bioavailability determined was approximately 6%. This value is considered a rough estimate based upon the area extrapolated and the unusually high clearance determined. […] Possible explanations for the high clearance are binding of compound to red blood cells, extremely rapid clearance that requires collection of earlier time points to establish a more accurate CO, and extrahepatic elimination.
# [10] = system: Mycobacterium tuberculosis; settings: read-out: IC50 (anti-proliferative activity); MTT assay
# Procedure: as §1
smiles,measurement,setting,value
COc1ccc(Cc2nc(NC3=NC(=O)N(C)C3=O)n(C)c2Cc2ccc(O)cc2)cc1 [Naamidine A],MIC,[1],0.78 µM
same,MIC,[2],79 µM
same,selectivity ratio,[3]; CEM-TART IC50 relative to M. tuberculosis IC50,37
same,IC50,[3]; CEM-TART cells,34.8 µM
same,Kd,[4],~0.35 µM
same,maximum tolerated dose,[5],25 mg/kg
same,IC50,[6],940 nM and 0.41 µg/mL
"COc1ccc(-c2c(Cc3ccccc3)nc(N(C)C(=O)c3ccccc3F)n2C)cc1 [ZNA-17, N-(4-Benzyl-5-(4-methoxyphenyl)-1-methyl-1H-imidazol-2-yl)-2-fluoro-N-methylbenzamide]",Zn^2+ binding,[7],incapable of binding Zn^2+
same,activity,[8],not active
"Cn1c(-c2ccc(O)cc2)c(Cc2ccccc2)[nH]/c1=N\C(=O)c1ccccc1F [ZNA-18, (E)-N-(4-Benzyl-5-(4-hydroxyphenyl)-1-methyl-1H-imidazol-2(3H)-ylidene)-2-fluorobenzamide]",activity,[8],active
same,ratio of major circulating metabolite to ZNA,[9],1:1
"COc1ccc(-c2c3cc(OC)c(OC)cc3cc3c2nc(N)n3C)cc1 [kealiinine B, Kealiinine B]",IC50,[10],8.9 µM
"COc1ccc(-c2c3nc(N)n(C)c3cc3cc(OC)c(OC)c(OC)c23)cc1 [kealiinine C, Kealiinine C]",IC50,[10],42 µM
